US11534457B2, “Use of dextran sulfate” (priority 2017, dated 2022)

System: severe traumatic brain injury (sTBI)
Assay: sTBI in rats, brain gene expression arrays and pathway analysis (Example 9)
Assay type: in vivo, Male Wistar rats
Parameters: key to z score, canonical pathway Dendritic Cell Maturation / z score, canonical pathway Adrenomedullin Signaling pathway / z score, canonical pathway Endothelin-1 Signaling / effect on canonical pathway Adrenomedullin Signaling pathway / effect on canonical pathway Endothelin-1 Signaling / effect on canonical pathway Dendritic Cell Maturation / Ingenuity canonical pathway Adrenomedullin signaling pathway, z score / Ingenuity canonical pathway FLT3 Signaling in Hematopoietic Progenitor Cells, z score / Ingenuity canonical pathway Opioid Signaling Pathway, z score / Ingenuity canonical pathway VDR/RXR Activation, z score / Ingenuity canonical pathway Neuropathic Pain Signaling In Dorsal Horn Neurons, z score / Ingenuity canonical pathway STAT3 Pathway, z score / Ingenuity canonical pathway IL-1 Signaling, z score / Ingenuity canonical pathway IL-6 Signaling, z score / Ingenuity canonical pathway NF-κB Signaling, z score / Ingenuity canonical pathway Role of NFAT in Cardiac Hypertrophy, z score / Ingenuity canonical pathway PPARα/RXRα Activation, z score: *: ambiguous effect
Details: TBI + 5 mg/kg LMW-DS
Experimental: The experimental protocol used in this study was approved by the Ethical Committee of the Catholic University of Rome, according to international standards and guidelines for animal care. Male Wistar rats of 300-350 g body weight were fed with standard laboratory diet and water ad libitum in a controlled environment. As the anesthetic mixture, the animals received 35 mg/kg b.w. ketamine and 0.25 mg/kg body weight midazolam by i.p. injection. Severe traumatic brain injury (sTBI) was induced by dropping a 450 g weight from 2 m height on to the rat head that had been protected by a metal disk previously fixed on the skull, according to the “weight drop” impact acceleration model (Marmarou et al., A new model of diffuse brain injury in rats. Part I: Pathophysiology and biomechanics. J Neurosurg. 1994; 80: 291-300). […] At the end of each period of treatment, rats were anesthetized again and then immediately sacrificed.
LMW-DS (Tikomed AB) was provided at a stock concentration of 20 mg/ml and was kept in a temperature-monitored refrigerator at 4° C. LMW-DS aliquots were diluted to the appropriate dosing concentration in sterile saline prior to delivery of a single subcutaneous injection.
Three doses of LMW-DS were administered subcutaneously 30 minutes post-TBI. The animals were sacrificed at 2 days post-TBI. The animals were divided into the following subgroups:
Three doses of LMW-DS were administered subcutaneously 30 minutes post-TBI. The animals were sacrificed at 7 days post-TBI. The animals were divided into the following subgroups:
An in vivo craniectomy was performed on all animals during anesthesia. After carefully removing the rat's skull, the brain was exposed and removed with a surgical spatula and quickly dropped in RNALater and preserved at 4° C. for further processing.
RNA extraction and array processing was carried out by SourceBioscience. The arrays used were the Agilent Rat expression arrays.
Statistical analysis was carried out using the Metaboanalyst software package. Gene expression changes of 10% with a p<0.05 were regarded as significant.
Pathway analysis of the differentially regulated genes was carried out using the Ingenuity pathway analysis package. The analysis was performed with special reference to pathways and molecular processes and diseases associated with neurodegenerative disease, including dementia, Alzheimer's disease, ALS, TBI and stroke, and with scarring and fibrosis, including glaucoma and normal pressure hydrocephalus (NPH) after subarachnoid haemorrhage.

[1] = 7 days after TBI, relative to control

low molecular weight dextran sulfate [LMW-DS]
−1: Ingenuity canonical pathway Wnt/β-catenin Signaling, z score [1]
*: Ingenuity canonical pathway PPARα/RXRα Activation, z score [1] | Ingenuity canonical pathway Role of NFAT in Cardiac Hypertrophy, z score [1] | Ingenuity canonical pathway STAT3 Pathway, z score [1] | Ingenuity canonical pathway VDR/RXR Activation, z score [1]
Activated: Diseases or functions annotation: Cell death (after 7 days, TBI: Activated) | Diseases or functions annotation: Cell death of epithelial cells (after 7 days, TBI: Activated) | Diseases or functions annotation: Development of sensory organ (after 7 days, TBI: Activated) | Diseases or functions annotation: Extracranial solid tumor (after 7 days, TBI: Activated) | Diseases or functions annotation: Failure of kidney (after 7 days, TBI: Activated) | Diseases or functions annotation: Formation of eye (after 7 days, TBI: Activated) | Diseases or functions annotation: Glucose metabolism disorder (after 7 days, TBI: Activated) | Diseases or functions annotation: Necrosis (after 7 days, TBI: Activated) | Diseases or functions annotation: Necrosis of epithelial tissue (after 7 days, TBI: Activated) | Diseases or functions annotation: Obesity (after 7 days, TBI: Activated) | Diseases or functions annotation: Peripheral vascular disease (after 7 days, TBI: Activated) | Diseases or functions annotation: Renal impairment (after 7 days, TBI: Activated) | Diseases or functions annotation: Abdominal adenocarcinoma (after 7 days, TBI: Inhibited) | Diseases or functions annotation: Abdominal neoplasm (after 7 days, TBI: Inhibited) | Diseases or functions annotation: Angiogenesis (after 7 days, TBI: Inhibited) | Diseases or functions annotation: Cancer (after 7 days, TBI: Inhibited) | Diseases or functions annotation: Cancer of cells (after 7 days, TBI: Inhibited) | Diseases or functions annotation: Cancer of secretory structure (after 7 days, TBI: Inhibited) | Diseases or functions annotation: Cell cycle progression (after 7 days, TBI: Inhibited) | Diseases or functions annotation: Cell movement (after 7 days, TBI: Inhibited) | Diseases or functions annotation: Cell movement of endothelial cells (after 7 days, TBI: Inhibited) | Diseases or functions annotation: Cell movement of myeloid cells (after 7 days, TBI: Inhibited) | Diseases or functions annotation: Cell movement of tumor cell lines (after 7 days, TBI: Inhibited) | Diseases or functions annotation: Cell survival (after 7 days, TBI: Inhibited) | Diseases or functions annotation: Cell viability (after 7 days, TBI: Inhibited) | Diseases or functions annotation: Cell viability of tumor cell lines (after 7 days, TBI: Inhibited) | Diseases or functions annotation: Cellular homeostasis (after 7 days, TBI: Inhibited) | Diseases or functions annotation: Chemotaxis (after 7 days, TBI: Inhibited) | Diseases or functions annotation: Development of body axis (after 7 days, TBI: Inhibited) | Diseases or functions annotation: Development of body trunk (after 7 days, TBI: Inhibited) | Diseases or functions annotation: Development of connective tissue cells (after 7 days, TBI: Inhibited) | Diseases or functions annotation: Development of epithelial tissue (after 7 days, TBI: Inhibited) | Diseases or functions annotation: Development of head (after 7 days, TBI: Inhibited) | Diseases or functions annotation: Development of neurons (after 7 days, TBI: Inhibited) | Diseases or functions annotation: Development of vasculature (after 7 days, TBI: Inhibited) | Diseases or functions annotation: Differentiation of bone (after 7 days, TBI: Inhibited) | Diseases or functions annotation: Differentiation of bone cells (after 7 days, TBI: Inhibited) | Diseases or functions annotation: Differentiation of connective tissue cells (after 7 days, TBI: Inhibited) | Diseases or functions annotation: Expression of RNA (after 7 days, TBI: Inhibited) | Diseases or functions annotation: Genital tumor (after 7 days, TBI: Inhibited) | Diseases or functions annotation: Genitourinary carcinoma (after 7 days, TBI: Inhibited) | Diseases or functions annotation: Genitourinary tumor (after 7 days, TBI: Inhibited) | Diseases or functions annotation: Growth of tumor (after 7 days, TBI: Inhibited) | Diseases or functions annotation: Invasion of cells (after 7 days, TBI: Inhibited) | Diseases or functions annotation: Leukocyte migration (after 7 days, TBI: Inhibited) | Diseases or functions annotation: Malignant genitourinary solid tumor (after 7 days, TBI: Inhibited) | Diseases or functions annotation: Malignant solid tumor (after 7 days, TBI: Inhibited) | Diseases or functions annotation: Microtubule dynamics (after 7 days, TBI: Inhibited) | Diseases or functions annotation: Migration of cells (after 7 days, TBI: Inhibited) | Diseases or functions annotation: Migration of endothelial cells (after 7 days, TBI: Inhibited) | Diseases or functions annotation: Neoplasia of cells (after 7 days, TBI: Inhibited) | Diseases or functions annotation: Non-hematological solid tumor (after 7 days, TBI: Inhibited) | Diseases or functions annotation: Non-melanoma solid tumor (after 7 days, TBI: Inhibited)
−2: Ingenuity canonical pathway cAMP-mediated signaling, z score [1]
−1.342: Ingenuity canonical pathway Protein Kinase A Signaling, z score [1]
1: Ingenuity canonical pathway Phospholipase C Signaling, z score [1] | Ingenuity canonical pathway Signaling by Rho Family GTPases, z score [1] | Ingenuity canonical pathway Synaptic Long Term Depression, z score [1]
2.236: Ingenuity canonical pathway Production of Nitric Oxide and Reactive Oxygen Species in Macrophages, z score [1]
Inhibited: Diseases or functions annotation: Apoptosis (after 7 days, TBI: Activated) | Diseases or functions annotation: Apoptosis of tumor cell lines (after 7 days, TBI: Activated) | Diseases or functions annotation: Bleeding (after 7 days, TBI: Activated) | Diseases or functions annotation: Breast or colorectal cancer (after 7 days, TBI: Activated) | Diseases or functions annotation: Breast or ovarian cancer (after 7 days, TBI: Activated) | Diseases or functions annotation: Cell death of tumor cell lines (after 7 days, TBI: Activated) | Diseases or functions annotation: Digestive organ tumor (after 7 days, TBI: Activated) | Diseases or functions annotation: Gastrointestinal tumor (after 7 days, TBI: Activated) | Diseases or functions annotation: Hematologic cancer (after 7 days, TBI: Activated) | Diseases or functions annotation: Hematologic cancer of cells (after 7 days, TBI: Activated) | Diseases or functions annotation: Hematopoietic neoplasm (after 7 days, TBI: Activated) | Diseases or functions annotation: Intestinal tumor (after 7 days, TBI: Activated) | Diseases or functions annotation: Lymphatic system tumor (after 7 days, TBI: Activated) | Diseases or functions annotation: Lymphocytic cancer (after 7 days, TBI: Activated) | Diseases or functions annotation: Lymphocytic neoplasm (after 7 days, TBI: Activated) | Diseases or functions annotation: Lymphoid cancer (after 7 days, TBI: Activated) | Diseases or functions annotation: Lymphoma (after 7 days, TBI: Activated) | Diseases or functions annotation: Lymphoproliferative disorder (after 7 days, TBI: Activated) | Diseases or functions annotation: Lymphoreticular neoplasm (after 7 days, TBI: Activated) | Diseases or functions annotation: Morbidity or mortality (after 7 days, TBI: Activated) | Diseases or functions annotation: Neoplasia of leukocytes (after 7 days, TBI: Activated) | Diseases or functions annotation: Organismal death (after 7 days, TBI: Activated) | Diseases or functions annotation: Sensory system development (after 7 days, TBI: Activated) | Diseases or functions annotation: Skin lesion (after 7 days, TBI: Activated) | Diseases or functions annotation: Skin tumor (after 7 days, TBI: Activated) | Diseases or functions annotation: Abdominal cancer (after 7 days, TBI: Inhibited) | Diseases or functions annotation: Abdominal carcinoma (after 7 days, TBI: Inhibited) | Diseases or functions annotation: Adenocarcinoma (after 7 days, TBI: Inhibited) | Diseases or functions annotation: Breast or pancreatic cancer (after 7 days, TBI: Inhibited) | Diseases or functions annotation: Carcinoma (after 7 days, TBI: Inhibited) | Diseases or functions annotation: Concentration of lipid (after 7 days, TBI: Inhibited) | Diseases or functions annotation: Development of genitourinary system (after 7 days, TBI: Inhibited) | Diseases or functions annotation: Digestive system cancer (after 7 days, TBI: Inhibited) | Diseases or functions annotation: Endocrine gland tumor (after 7 days, TBI: Inhibited) | Diseases or functions annotation: Growth of connective tissue (after 7 days, TBI: Inhibited) | Diseases or functions annotation: Growth of epithelial tissue (after 7 days, TBI: Inhibited) | Diseases or functions annotation: Head and neck cancer (after 7 days, TBI: Inhibited) | Diseases or functions annotation: Head and neck tumor (after 7 days, TBI: Inhibited) | Diseases or functions annotation: Nonhematologic malignant neoplasm (after 7 days, TBI: Inhibited)
2.53: Ingenuity canonical pathway Role of NFAT in Regulation of the Immune Response, z score [1]
